Data reported in PubChem BioAssay AID651570 (Sanford-Burnham Center for Chemical Genomics, 2012).
Activity calls are given as the source filed them.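 The calls were made as follows: active = compounds that block the Wnt3a luciferase reporter with IC50 at or below 20 µM, flagged as nonspecific; inactive = the rest.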

Test system: Wnt-LIGHT cells, Wnt3a-conditioned, luciferase reporter luminescence
Assay: Wnt3a-driven reporter signaling inhibition, dose response, selectivity assay for Gli-SUFU antagonist project, Wnt-LIGHT cells, luminescence (AID 651570)

Row | IC50 | Compound
1 | > 50 µM (inactive) | O=C(Nc1ccccc1)C1=C[C@H](C2CCCCC2)C[C@H](OCCCCO)O1
2 | > 50 µM (inactive) | O=C(C[C@H]1C/C=C\C[C@H](NC(=O)OCC2c3ccccc3-c3ccccc32)C(=O)OC[C@@H]2CCCN2C1=O)N[C@H](CO)Cc1ccccc1
